Measured values published in patent publication EP4512806A1, “MOLECULAR GLUE DEGRADERS AND USES THEREOF” (Mablink Bioscience, priority 2023, dated 2025).
Blank lines part the entries; values can stand above or below the molecule they belong to. Peptide text beside a SMILES is read from it. * marks the point of attachment. Cbz = O=C(OCc1ccccc1)*

Legend:
MDA-MB-453 = assay: In vitro cytotoxicity assay (MTT); assay type: cell-based, human; details: 6 days incubation
Description: (§1) Human cancer cell lines used in the present project were purchased from either the American Type Culture Collection (ATCC), The Leibniz Institute DSMZ German Collection of Microorganisms and Cell Cultures GmbH (DSMZ) or the European Collection of Authenticated Cell Cultures (ECACC). For use in experiments, cells were cultivated following good and established cell culture practices, following instructions from the original ATCC/DSMZ/ECACC supplier for cell culture media & supplement, cryopreservation, and subculturing procedures. Cells were incubated under a 5% CO2 atmosphere at 37°C for no longer than 2 months.
(§2) In vitro cytotoxicity of compounds of the disclosure was assessed on several cancerous human cell lines. Cells were plated in 96-well plates at an appropriate density depending on the cell line (between 1000 and 10 000 cells/well in 100µL of appropriate culture media) and incubated at 37°C for 24 hours. Serial dilutions of the tested compound previously dissolved in culture media (50µL) were added, and incubation was carried at 37°C out for 6 days. MTT (5mg/mL in PBS, 20µL, Sigma-Aldrich) was added into the wells, and incubation was continued for 1 to 4 hours at 37°C. Culture media was then carefully removed, and well content was homogeneously dissolved with acidified isopropanol. Absorbance values were measured on a microplate reader using a wavelength of 570 nm (with a reference wavelength of 690 nm). The IC50 concentration values compared to untreated control cells were determined using inhibition dose response curve fitting (GraphPad Prism 9). Exatecan mesylate (cat#HY-13631A) and CR8 (CAS# 294646-77-8; cat#HY-18340) were purchased from MedChemExpress (China).

BT-474 = assay: In vitro cytotoxicity assay (MTT); assay type: cell-based, human; details: 6 days incubation
Description: as §1, §2

MDA-MB-231 = assay: In vitro cytotoxicity assay (MTT); assay type: cell-based, human; details: 6 days incubation
Description: as §1, §2

JIMT-1 = assay: In vitro cytotoxicity assay (MTT); assay type: cell-based, human; details: 6 days incubation
Description: as §1, §2

SKBR-3 = assay: In vitro cytotoxicity assay (MTT); assay type: cell-based, human; details: 6 days incubation
Description: as §1, §2

NCI-N87 = assay: In vitro cytotoxicity assay (MTT); assay type: cell-based, human; details: 6 days incubation
Description: as §1, §2

[1] = Passive permeability assessment (PAMPA assay); assay type: in vitro ADME; details: in words
MDR1 = biological target: T1, MDR1 (Homo sapiens, UniProt P08183); assay: MDR1 efflux substrate assay (MDCK-MDR1); assay type: in vitro ADME; details: MDCK-MDR1, 5µM, 60 min, in words
T1 construct: host or cells: MDCK-MDR1
Protocol: (§3) MDR1 and BCRP efflux substrate assays were conducted in MDCK-MDR1 and MDCK-BCRP in vitro models (Preadyport™, Solvo Biotech) at Symeres (Nederland). Compound of the invention (donor well concentration of 5µM) were incubated in cell monolayer 24-transwell Preadyport system, using Preadyport recommended pH 7.4 assay buffer (donor and receiver wells). After 60 min of incubation (no shaking), samples are collected and suspended into triple volume of 66% cold acetonitrile. Samples are stored at -20°C until thawed, centrifuged and analyzed by LC-MS. Quinidine was used a positive control for the MDR1 assay, and prazosin was used as a positive control for the BCRP assay. Exatecan was used as a control, known not to be an MDR1 substrate. Residual DMSO content from compounds stock solutions was below 1% (v/v). The assay was performed in duplicate. The quantification of test compounds in donor or receptor compartment is conducted using relative LC/MS peak areas (samples of initial incubation solutions are used as a single point calibrator), without any spiked standard samples. The data is used for estimating apparent permeability (Papp) and calculation of efflux ratio.
MDR1 is protein of the tumor cell membrane that pumps the anticancer drugs out of cancer cells, thereby rendering the cell drug-resistant. The Papp (10^-6 cm/s) B (acceptor = basolateral) to A (donor = apical) reflects the susceptibility of a compounds to be pumped out of a tumor and as such a low Papp B→A value is advantageous in the context of oncology. The efflux ratio B/A reflects the overall ability of a compounds to enter MDR1-expressing tumor cells (equilibrium between ability to passively enter the cell A→B and susceptibility to be pumped out of a tumor B→A).

BCRP = biological target: T2, BCRP (Homo sapiens, UniProt Q9UNQ0); assay: BCRP efflux substrate assay (MDCK-BCRP); assay type: in vitro ADME; details: 5µM, 60 min, in words
T2 construct: host or cells: MDCK-BCRP
T2 sequence (Q9UNQ0 1-655): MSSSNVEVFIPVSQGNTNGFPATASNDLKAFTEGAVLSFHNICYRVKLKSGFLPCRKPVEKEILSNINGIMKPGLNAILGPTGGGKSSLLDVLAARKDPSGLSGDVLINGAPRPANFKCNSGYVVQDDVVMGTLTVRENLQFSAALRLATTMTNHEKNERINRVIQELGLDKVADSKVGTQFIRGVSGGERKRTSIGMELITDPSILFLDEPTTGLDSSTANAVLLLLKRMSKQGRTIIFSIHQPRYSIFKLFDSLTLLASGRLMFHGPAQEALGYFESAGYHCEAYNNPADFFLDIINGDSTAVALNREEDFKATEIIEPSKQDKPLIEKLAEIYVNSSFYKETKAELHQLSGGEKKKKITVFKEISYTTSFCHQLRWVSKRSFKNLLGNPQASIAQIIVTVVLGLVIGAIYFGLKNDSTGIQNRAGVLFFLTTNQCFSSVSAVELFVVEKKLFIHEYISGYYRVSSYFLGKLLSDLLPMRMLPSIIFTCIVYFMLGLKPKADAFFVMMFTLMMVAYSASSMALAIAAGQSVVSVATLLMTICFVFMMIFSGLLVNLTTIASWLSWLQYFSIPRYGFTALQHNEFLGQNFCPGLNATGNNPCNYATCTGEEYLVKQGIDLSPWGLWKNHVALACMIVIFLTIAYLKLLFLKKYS
Protocol: as §3
BCRP, like MDR1, is a protein of the tumor cell membrane that pumps the anticancer drugs out of cancer cells, thereby rendering the cell drug-resistant. This multidrug-resistant protein is particularly expressed in breast and lung cancers. The efflux ratio B/A reflects the overall ability of a compounds to enter BCRP-expressing tumor cells (equilibrium between ability to passively enter the cell A→B and susceptibility to be pumped out of a tumor B→A).

[2] = In vivo mice tolerability assessment; details: female CD-1 mice, single intravenous 1mg/kg dose, Mean
Protocol: All animal procedures were performed in accordance with the European Union directive 86/609/EEC. Experiments were performed under individual permit and in accredited animal care facilities.
Mouse tolerability experiments were performed with selected compounds of the disclosure. Female CD-1 mice (n=5 mice per group) were treated with a single intravenous 1mg/kg dose of compound. Vehicle was PBS pH 6.0. Mice were carefully monitored for mortality, external clinical findings, weight loss, behavior and apparent signs of toxicity over the course of 21 days.

CycK = biological target: T3, CycK (Homo sapiens, UniProt O75909); assay: CycK protein quantification by Western Blot in JIMT-1 cells; assay type: cell-based; details: 2h
T3 construct: endogenous in cells; host or cells: JIMT-1
Protocol: 1×10^6 JIMT-1 cells were plated in 3mL of DMEM/FBS 90:10 (v/v) in 6-well plates and incubated overnight. Cells were treated with the compound 2384 of the invention with or without the proteasome inhibitor MG-132 (MedChemExpress, Cat HY-13259) for 2h. Cells were harvested, and protein were extracted using complete RIPA buffer (RIPA buffer, 1 mM DTT, 1M NaF, 100 mM sodium orthovanadate, phosphatase inhibitor buffer and protease inhibitors) for 1 hour on ice. Lysate were centrifuged 15min at 12 000g at 4°C. and proteins were mixed with 4x Laemmli Sample Buffer (Bio-Rad), heated at 95 °C for 5 mins and separated by SDS PAGE (PROTEAN TGX Stain-Free Gels, Bio-Rad). Proteins were then transferred onto PVDF membrane (iBlot®2 PVDF stacks, Invitrogen) using the iBlot2 device (Invitrogen) and blocked with TBS buffer (Intercept® Blocking Buffer, LI-COR Biosciences). Primary antibodies were incubated overnight at 4°C and secondary antibodies (IRDye Infrared Dyes from LI-COR Biosciences) 1 hour at room temperature. Used primary antibody were: anti-CycK (cat#A301-939A, Bethyl Laboratories, dil. 1:1000) and anti-β-actin (cat#A5441, Sigma-Aldrich, dil. 1:5000). Membranes were scanned using a c500 Imaging System (Azure Biosystems) and densitometric quantification were performed using imaged software. Protein levels were normalized against β-actin.

T1 sequence (P08183 whole entry): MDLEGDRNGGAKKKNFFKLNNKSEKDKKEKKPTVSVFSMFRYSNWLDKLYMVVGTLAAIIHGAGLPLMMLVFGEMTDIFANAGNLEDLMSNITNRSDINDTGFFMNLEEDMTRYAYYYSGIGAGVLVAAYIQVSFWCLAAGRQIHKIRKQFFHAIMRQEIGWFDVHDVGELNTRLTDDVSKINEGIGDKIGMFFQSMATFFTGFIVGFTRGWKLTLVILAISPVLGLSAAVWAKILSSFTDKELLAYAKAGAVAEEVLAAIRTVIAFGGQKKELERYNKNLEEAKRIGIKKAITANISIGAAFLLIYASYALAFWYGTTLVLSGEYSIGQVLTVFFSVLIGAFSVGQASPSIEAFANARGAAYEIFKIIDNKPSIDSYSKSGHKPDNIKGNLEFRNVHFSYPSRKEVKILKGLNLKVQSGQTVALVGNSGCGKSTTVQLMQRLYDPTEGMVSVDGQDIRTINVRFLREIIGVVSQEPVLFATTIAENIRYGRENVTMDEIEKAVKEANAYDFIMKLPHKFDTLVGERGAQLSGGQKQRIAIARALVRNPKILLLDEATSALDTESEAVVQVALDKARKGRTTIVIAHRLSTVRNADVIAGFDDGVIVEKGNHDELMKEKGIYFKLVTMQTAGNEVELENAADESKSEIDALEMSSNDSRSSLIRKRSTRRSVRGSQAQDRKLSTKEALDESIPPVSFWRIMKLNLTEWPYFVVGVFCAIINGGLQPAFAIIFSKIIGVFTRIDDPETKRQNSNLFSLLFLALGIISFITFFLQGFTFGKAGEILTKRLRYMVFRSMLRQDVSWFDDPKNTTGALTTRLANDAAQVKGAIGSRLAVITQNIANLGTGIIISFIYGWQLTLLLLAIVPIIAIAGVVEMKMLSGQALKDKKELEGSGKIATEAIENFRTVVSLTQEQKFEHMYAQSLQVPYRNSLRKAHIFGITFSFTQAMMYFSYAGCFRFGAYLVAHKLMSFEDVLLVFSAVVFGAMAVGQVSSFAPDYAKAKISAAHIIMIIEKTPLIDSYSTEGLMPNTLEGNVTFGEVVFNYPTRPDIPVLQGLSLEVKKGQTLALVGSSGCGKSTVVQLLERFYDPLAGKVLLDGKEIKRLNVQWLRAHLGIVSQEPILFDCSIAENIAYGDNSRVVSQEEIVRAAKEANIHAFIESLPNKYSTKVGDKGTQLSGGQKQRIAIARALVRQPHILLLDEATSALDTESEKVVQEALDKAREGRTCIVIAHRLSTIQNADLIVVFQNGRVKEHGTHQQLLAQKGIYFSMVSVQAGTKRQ
T3 sequence (O75909 whole entry): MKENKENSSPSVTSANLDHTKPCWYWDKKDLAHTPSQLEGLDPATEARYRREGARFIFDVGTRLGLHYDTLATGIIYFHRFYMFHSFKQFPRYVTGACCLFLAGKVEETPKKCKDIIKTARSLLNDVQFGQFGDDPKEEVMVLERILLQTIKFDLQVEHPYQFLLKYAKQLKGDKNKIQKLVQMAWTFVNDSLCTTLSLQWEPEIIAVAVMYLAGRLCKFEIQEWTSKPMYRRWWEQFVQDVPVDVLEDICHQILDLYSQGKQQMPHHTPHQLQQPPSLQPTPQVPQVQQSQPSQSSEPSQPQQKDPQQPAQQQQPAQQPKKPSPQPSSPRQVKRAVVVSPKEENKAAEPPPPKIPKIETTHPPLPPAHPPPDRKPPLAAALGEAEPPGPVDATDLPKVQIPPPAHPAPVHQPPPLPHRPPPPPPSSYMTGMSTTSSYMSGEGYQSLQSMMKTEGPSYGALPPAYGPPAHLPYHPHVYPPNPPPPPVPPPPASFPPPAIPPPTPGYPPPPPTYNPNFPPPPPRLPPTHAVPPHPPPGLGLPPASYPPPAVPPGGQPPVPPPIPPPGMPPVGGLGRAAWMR
T3 sequence (Q9NYV4 whole entry partner): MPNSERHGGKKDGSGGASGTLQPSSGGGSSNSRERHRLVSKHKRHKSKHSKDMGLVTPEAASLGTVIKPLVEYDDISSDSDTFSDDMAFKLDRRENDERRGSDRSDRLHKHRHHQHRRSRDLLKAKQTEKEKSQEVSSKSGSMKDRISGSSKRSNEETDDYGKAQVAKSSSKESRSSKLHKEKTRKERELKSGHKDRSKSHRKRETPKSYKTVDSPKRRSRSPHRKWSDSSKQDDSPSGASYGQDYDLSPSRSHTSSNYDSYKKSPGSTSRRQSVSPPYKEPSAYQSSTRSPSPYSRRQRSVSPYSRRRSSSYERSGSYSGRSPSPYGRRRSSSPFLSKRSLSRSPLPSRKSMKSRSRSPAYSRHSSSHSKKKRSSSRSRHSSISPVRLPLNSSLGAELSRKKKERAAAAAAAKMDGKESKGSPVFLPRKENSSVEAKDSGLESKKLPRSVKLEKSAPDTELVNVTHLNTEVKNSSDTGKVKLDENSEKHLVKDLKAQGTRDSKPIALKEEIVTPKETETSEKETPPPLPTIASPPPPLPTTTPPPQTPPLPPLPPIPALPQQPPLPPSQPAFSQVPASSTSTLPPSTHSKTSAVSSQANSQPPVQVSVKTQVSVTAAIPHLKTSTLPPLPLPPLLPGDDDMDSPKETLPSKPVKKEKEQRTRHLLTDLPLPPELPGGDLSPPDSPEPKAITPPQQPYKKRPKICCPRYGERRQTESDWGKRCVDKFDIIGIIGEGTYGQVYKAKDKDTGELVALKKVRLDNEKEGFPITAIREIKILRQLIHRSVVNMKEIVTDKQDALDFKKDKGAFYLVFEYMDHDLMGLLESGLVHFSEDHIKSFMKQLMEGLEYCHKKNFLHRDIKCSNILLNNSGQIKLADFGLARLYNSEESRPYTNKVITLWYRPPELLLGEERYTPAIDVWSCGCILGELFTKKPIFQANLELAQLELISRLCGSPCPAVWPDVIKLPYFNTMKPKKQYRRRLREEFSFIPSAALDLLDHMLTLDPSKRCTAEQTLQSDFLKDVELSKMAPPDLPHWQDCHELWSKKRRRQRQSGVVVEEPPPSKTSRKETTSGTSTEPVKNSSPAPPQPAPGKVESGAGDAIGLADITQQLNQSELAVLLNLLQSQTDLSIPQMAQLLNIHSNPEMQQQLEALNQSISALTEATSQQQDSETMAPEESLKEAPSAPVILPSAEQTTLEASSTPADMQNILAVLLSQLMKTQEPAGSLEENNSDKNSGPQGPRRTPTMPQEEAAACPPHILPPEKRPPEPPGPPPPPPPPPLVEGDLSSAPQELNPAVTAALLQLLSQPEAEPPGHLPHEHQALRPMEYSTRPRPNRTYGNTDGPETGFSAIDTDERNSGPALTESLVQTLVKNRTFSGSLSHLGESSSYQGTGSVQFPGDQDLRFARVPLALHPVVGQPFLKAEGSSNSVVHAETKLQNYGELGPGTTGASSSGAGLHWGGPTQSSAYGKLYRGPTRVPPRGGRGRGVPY
T3 sequence (Q16531 whole entry partner): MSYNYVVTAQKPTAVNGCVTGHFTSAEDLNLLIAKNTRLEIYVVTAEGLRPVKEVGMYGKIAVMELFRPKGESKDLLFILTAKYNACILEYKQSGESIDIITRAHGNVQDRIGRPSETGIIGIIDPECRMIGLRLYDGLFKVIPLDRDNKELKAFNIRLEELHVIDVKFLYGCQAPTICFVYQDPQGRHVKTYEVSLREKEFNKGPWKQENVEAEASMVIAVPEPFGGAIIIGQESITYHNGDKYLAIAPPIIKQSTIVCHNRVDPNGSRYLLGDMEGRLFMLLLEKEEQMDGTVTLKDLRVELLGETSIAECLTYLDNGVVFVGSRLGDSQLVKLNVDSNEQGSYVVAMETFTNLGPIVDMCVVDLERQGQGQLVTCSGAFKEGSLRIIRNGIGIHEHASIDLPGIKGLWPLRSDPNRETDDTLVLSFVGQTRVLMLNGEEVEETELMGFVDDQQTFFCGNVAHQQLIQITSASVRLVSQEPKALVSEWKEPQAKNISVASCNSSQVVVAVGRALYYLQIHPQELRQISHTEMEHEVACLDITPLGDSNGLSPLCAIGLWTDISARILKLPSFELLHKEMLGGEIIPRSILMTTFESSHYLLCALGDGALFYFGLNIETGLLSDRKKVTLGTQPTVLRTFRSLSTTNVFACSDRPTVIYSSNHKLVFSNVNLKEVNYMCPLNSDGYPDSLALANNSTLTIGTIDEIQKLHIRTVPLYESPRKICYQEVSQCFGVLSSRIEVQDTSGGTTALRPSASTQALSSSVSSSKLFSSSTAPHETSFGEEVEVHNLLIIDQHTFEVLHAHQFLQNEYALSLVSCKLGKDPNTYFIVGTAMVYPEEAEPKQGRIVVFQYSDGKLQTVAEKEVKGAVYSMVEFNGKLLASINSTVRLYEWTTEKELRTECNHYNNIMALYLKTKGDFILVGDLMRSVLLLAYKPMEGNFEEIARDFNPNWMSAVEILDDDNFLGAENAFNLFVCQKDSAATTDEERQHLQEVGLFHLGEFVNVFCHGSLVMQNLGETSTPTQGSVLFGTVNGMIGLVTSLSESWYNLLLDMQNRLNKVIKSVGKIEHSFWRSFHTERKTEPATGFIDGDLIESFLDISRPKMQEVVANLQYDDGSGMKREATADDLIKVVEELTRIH

SMILES: Brc1cnn2c(Nc3ccc(CN4CCOCC4)cc3)nc(NC3CCNCC3)nc12 [Compound 2554]
IC50 (MDA-MB-453): > 100 nM
IC50 (BT-474): > 100 nM
IC50 (MDA-MB-231): > 100 nM
IC50 (JIMT-1): > 100 nM
IC50 (SKBR-3): > 100 nM
IC50 (NCI-N87): > 100 nM

SMILES: NCCCCNc1nc(NCc2ccc(-c3ccccn3)cc2)n2ncc(Br)c2n1 [Compound 2585]
passive permeability potential [1]: none

SMILES: CN(CCN)c1nc(NCc2ccc(-c3ccccn3)cc2)n2ncc(Br)c2n1 [Compound 2600]
MDR1 efflux potential (MDR1): low level
BCRP efflux potential (BCRP): low level

SMILES: CNCCN(C)c1nc(NCc2ccc(-c3ccccn3)cc2)n2ncc(Br)c2n1 [Compound 2605]
MDR1 efflux potential (MDR1): low level
BCRP efflux potential (BCRP): low level

SMILES: Brc1cnn2c(NCc3ccc(-c4ccccn4)cc3)nc(N[C@H]3CCNC3)nc12 [Compound 2657]
IC50 (MDA-MB-453): 0.77 nM
IC50 (BT-474): 1.71 nM
IC50 (MDA-MB-231): 0.56 nM
IC50 (SKBR-3): 0.13 nM
IC50 (NCI-N87): 0.43 nM
average weight change (% initial weight) ([2]; Study Day 1): 0.0 % initial weight
average weight change (% initial weight) ([2]; Study Day 2): 1.3 % initial weight
average weight change (% initial weight) ([2]; Study Day 3): 1.5 % initial weight
average weight change (% initial weight) ([2]; Study Day 4): 1.7 % initial weight
average weight change (% initial weight) ([2]; Study Day 5): 2.3 % initial weight
average weight change (% initial weight) ([2]; Study Day 6): 4.2 % initial weight
average weight change (% initial weight) ([2]; Study Day 7): 3.3 % initial weight
average weight change (% initial weight) ([2]; Study Day 8): 4.2 % initial weight
average weight change (% initial weight) ([2]; Study Day 9): 4.5 % initial weight
average weight change (% initial weight) ([2]; Study Day 10): 7.8 % initial weight
average weight change (% initial weight) ([2]; Study Day 11): 7.7 % initial weight
average weight change (% initial weight) ([2]; Study Day 12): 8.0 % initial weight
average weight change (% initial weight) ([2]; Study Day 13): 7.9 % initial weight
average weight change (% initial weight) ([2]; Study Day 14): 8.0 % initial weight
average weight change (% initial weight) ([2]; Study Day 15): 7.9 % initial weight
average weight change (% initial weight) ([2]; Study Day 16): 9.4 % initial weight
average weight change (% initial weight) ([2]; Study Day 17): 9.3 % initial weight
average weight change (% initial weight) ([2]; Study Day 18): 9.8 % initial weight
average weight change (% initial weight) ([2]; Study Day 19): 10.5 % initial weight
average weight change (% initial weight) ([2]; Study Day 20): 11.4 % initial weight
average weight change (% initial weight) ([2]; Study Day 21): 12.0 % initial weight

SMILES: CC(C)C[C@@H](C=O)NC(=O)[C@H](CC(C)C)NC(=O)[C@H](CC(C)C)NC(=O)OCc1ccccc1 [MG-132, reference compound] (Cbz-Leu-Leu-Leu-aldehyde)
CycK protein content in combination with proteasome inhibitor (CycK; degrader combined with MG-132): restored the content in cycK protein

SMILES: CN(C)C/C=C/C(=O)Nc1ccc(C(=O)N2CCC[C@@H](Nc3ncc(Cl)c(-c4c[nH]c5ccccc45)n3)C2)cc1 [THZ-531, reference compound]
CycK protein content (CycK; 1µM final concentration): no impact

Further lines, results first:

passive permeability potential [1]: moderate
SMILES: NC[C@H]1CC[C@H](Nc2nc(NCc3ccc(-c4ccccn4)cc3)n3ncc(Br)c3n2)CC1 [Compound 2636]

MDR1 efflux potential (MDR1): low level
BCRP efflux potential (BCRP): low level
SMILES: N[C@H]1CCN(c2nc(NCc3ccc(-c4ccccn4)cc3)n3ncc(Br)c3n2)C1 [Compound 2655]

passive permeability potential [1]: high
SMILES: N[C@H]1CCCC[C@@H]1Nc1nc(NCc2ccc(-c3ccccn3)cc2)n2ncc(Br)c2n1 [Compound 2671]
